How the values were obtained:
[1] = target: CYP1A2 (Homo sapiens, UniProt P05177); conditions: cited from earlier work
[2] = tested on: calcium-oxalate kidney stone murine model; test: calcium-oxalate kidney stone murine model (calcium chloride and hydroxyproline in drinking water); format: in vivo, rat; conditions: Stiripentol 4 g/L in drinking water (about 150 mg/Kg), 4 months, versus controls
Excerpt: A calcium-oxalate kidney stone murine model has been generated. […] The rats have been exposed for 4 month to this diet. […] Rats have been sacrificed at the end of the protocol and kidneys have been removed for analyses.

[3] = target: CYP3A4 (Homo sapiens, UniProt P08684); conditions: cited from earlier work
[4] = target: lactate dehydrogenase 1 (LDH-1) (Homo sapiens, UniProt P07195); conditions: in neurons; cited from earlier work
[5] = tested on: uptake of gamma-aminobutyric acid (GABA); conditions: cited from earlier work
[6] = tested on: rats exposed to ethylene glycol; test: murine model of ethylene glycol poisoning; format: in vivo, rat
Description: A murine model of ethylene glycol poisoning has been prepared by giving 6 g/kg ethylene glycol orally once to twelve adult Sprague-Dawley rats (single oral administration).
Rats have been sacrificed 48 hours after ethylene glycol intake, blood and urine parameters have been collected and kidneys have been removed for histopathological analyses.

[7] = target: lactate dehydrogenase 5 (LDH-5) (Homo sapiens, UniProt P00338); conditions: in neurons; cited from earlier work

Chain of lactate dehydrogenase 1 (LDH-1) (P07195 2-334 limits assumed): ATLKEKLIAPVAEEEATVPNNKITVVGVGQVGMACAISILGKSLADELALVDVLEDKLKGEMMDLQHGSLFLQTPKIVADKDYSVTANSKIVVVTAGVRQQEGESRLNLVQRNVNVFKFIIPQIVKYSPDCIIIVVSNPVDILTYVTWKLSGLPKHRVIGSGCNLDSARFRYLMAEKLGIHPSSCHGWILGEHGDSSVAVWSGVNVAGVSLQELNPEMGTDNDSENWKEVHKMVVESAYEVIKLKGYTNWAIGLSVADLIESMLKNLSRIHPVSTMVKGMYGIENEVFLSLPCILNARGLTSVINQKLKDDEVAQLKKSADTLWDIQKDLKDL
Chain of CYP1A2 (P05177 whole entry): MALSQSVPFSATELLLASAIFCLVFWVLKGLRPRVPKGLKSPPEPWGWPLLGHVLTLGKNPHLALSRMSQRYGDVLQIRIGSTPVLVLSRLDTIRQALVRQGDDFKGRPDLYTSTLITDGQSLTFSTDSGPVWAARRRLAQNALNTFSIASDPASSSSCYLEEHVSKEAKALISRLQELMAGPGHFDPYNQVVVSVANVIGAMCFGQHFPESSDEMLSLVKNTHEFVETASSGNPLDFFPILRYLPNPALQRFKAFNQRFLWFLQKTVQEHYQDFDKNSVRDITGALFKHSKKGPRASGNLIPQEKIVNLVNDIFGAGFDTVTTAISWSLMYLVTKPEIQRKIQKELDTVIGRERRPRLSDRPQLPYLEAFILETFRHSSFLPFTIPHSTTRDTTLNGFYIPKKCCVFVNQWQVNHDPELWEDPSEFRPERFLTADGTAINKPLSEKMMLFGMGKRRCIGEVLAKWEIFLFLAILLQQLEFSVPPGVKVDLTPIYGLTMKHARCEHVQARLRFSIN
Chain of CYP3A4 (P08684 whole entry): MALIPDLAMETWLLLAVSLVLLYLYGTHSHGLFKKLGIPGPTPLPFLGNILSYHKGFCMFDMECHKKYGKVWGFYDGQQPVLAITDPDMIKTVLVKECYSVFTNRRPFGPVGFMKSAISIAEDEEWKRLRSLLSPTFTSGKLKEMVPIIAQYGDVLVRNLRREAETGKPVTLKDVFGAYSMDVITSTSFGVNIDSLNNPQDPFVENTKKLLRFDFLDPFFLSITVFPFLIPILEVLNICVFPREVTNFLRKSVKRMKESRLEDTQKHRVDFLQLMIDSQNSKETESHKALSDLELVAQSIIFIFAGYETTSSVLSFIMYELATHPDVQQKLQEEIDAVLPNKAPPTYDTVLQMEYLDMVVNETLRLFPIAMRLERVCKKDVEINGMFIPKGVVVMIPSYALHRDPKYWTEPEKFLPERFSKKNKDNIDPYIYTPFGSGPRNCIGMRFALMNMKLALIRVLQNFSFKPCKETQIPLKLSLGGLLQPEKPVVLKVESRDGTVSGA

Row | Compound | inhibition of CYP1A2 [1] | calcium oxalate crystals in urine [2] | renal function assessed by serum creatinine levels ([2]; p=0.002) | inhibition of CYP3A4 [3] | inhibition of pyruvate to lactate conversion by LDH-1 [4] | inhibition of the uptake of GABA [5] | calcium oxalate crystals in kidneys (histopathology, kidney section coverage) ([6]; 6 g/kg ethylene glycol orally once, Stiripentol 300 mg/kg at intoxication and 4 g/L in drinking water days 1 and 2, 48 hours, p=0.0046) | urinary oxalate excretion induced by ethylene glycol poisoning ([6]; Stiripentol at therapeutic range) | renal function assessed by serum creatinine levels ([6]; ethylene glycol intoxicated rats, Stiripentol 300 mg/kg then 4 g/L in drinking water, 48 hours, p=0.009) | inhibition of pyruvate to lactate conversion by LDH-5 [7]
1 | CC(C)(C)C(O)/C=C/c1ccc2c(c1)OCO2 (racemic) [Stiripentol, 4,4-dimethyl-1-[(3,4-methylenedioxy)-phenyl]-1-penten-3-ol] | inhibitor | less calcium oxalate crystals in urine | preserved renal function | inhibitor | inhibit | inhibits | much less crystals | decreases urinary oxalate excretion | remarkably less impaired | 
2 | C/C=C/c1ccc2c(c1)OCO2 [Isosafrole, 3,4-methylenedioxyphenyl-1-propene] |  |  |  |  | inhibit |  |  |  |  | inhibit

Source: patent publication US20210052547A1 (priority 2016, published 2021)
